Reference: the NIST ThermoML archive (doi:10.1016/j.jct.2017.11.017)
Numbers after ± are expanded uncertainties.

Experiment: activity coefficient (dimensionless); of the first substance listed, at infinite dilution; xn = mol fraction of the nth substance listed
Details: 101.33 kPa, Liquid, Chromatography, x1 = 0

Compound	activity coefficient (298.15 K)	activity coefficient (308.15 K)	activity coefficient (318.15 K)	activity coefficient (328.15 K)	activity coefficient (338.15 K)	activity coefficient (348.15 K)	activity coefficient (358.15 K)	activity coefficient (368.15 K)
C1=CCCCC1 [cyclohexene] + C[n+]1ccn(CCCO)c1.N#CN=C=[N-]	40.7 ± 2.8	38.2 ± 2.6	36.1 ± 2.5	34.5 ± 2.4	32.7 ± 2.2	31.4 ± 2.1	30 ± 2.1	
CCCC=O [butanal] + C[N+]1(CCCO)CCOCC1.N#C[N-]C#N			4.26 ± 0.29	4.49 ± 0.31	4.74 ± 0.32	4.97 ± 0.34	5.19 ± 0.35	5.38 ± 0.37
Cc1cccc(C)c1 [1,3-dimethylbenzene] + C[N+]1(CCCO)CCOCC1.N#C[N-]C#N			24.1 ± 1.6	24.1 ± 1.6	24.2 ± 1.7	24.3 ± 1.7	24.3 ± 1.7	24.5 ± 1.7
C1CCCCC1 [cyclohexane] + C[N+]1(CCCO)CCOCC1.N#C[N-]C#N		381 ± 26	319 ± 22	260 ± 18	219 ± 15	184 ± 13	159 ± 11	138 ± 9
CCCOCCC [dipropyl ether] + C[N+]1(CCCO)CCOCC1.N#C[N-]C#N		218 ± 15	202 ± 14	189 ± 13	176 ± 12	166 ± 11	157 ± 11	148 ± 10
C=COC(C)=O [vinyl acetate] + C[n+]1ccn(CCCO)c1.N#CN=C=[N-]			4.73 ± 0.32	4.92 ± 0.34	5.12 ± 0.35	5.3 ± 0.36	5.49 ± 0.37	5.68 ± 0.39
CCCCCCC [heptane] + C[N+]1(CCCO)CCOCC1.N#C[N-]C#N	1540 ± 110	1290 ± 89						
C1COCCO1 [1,4-dioxane] + C[n+]1ccn(CCCO)c1.N#CN=C=[N-]			1.73 ± 0.12	1.85 ± 0.12	1.98 ± 0.13	2.09 ± 0.14	2.23 ± 0.15	2.34 ± 0.16
COC(C)(C)C [2-methoxy-2-methylpropane] + C[N+]1(CCCO)CCOCC1.N#C[N-]C#N		55.8 ± 3.8	52.4 ± 3.6	49.7 ± 3.4	47.1 ± 3.2	45 ± 3.1	42.9 ± 2.9	41.3 ± 2.8
CCC(=O)CC [pentan-3-one] + C[n+]1ccn(CCCO)c1.N#CN=C=[N-]			5.1 ± 0.35	5.29 ± 0.36	5.54 ± 0.38	5.71 ± 0.39	5.95 ± 0.41	6.11 ± 0.42
C=CCCCC [hex-1-ene] + C[n+]1ccn(CCCO)c1.N#CN=C=[N-]	123 ± 8	116 ± 8	109 ± 7	102 ± 7	97.5 ± 6.7	92.5 ± 6.3	89 ± 6.1	
CCCC=O [butanal] + C[n+]1ccn(CCCO)c1.N#CN=C=[N-]			2.68 ± 0.18	2.92 ± 0.2	3.19 ± 0.22	3.43 ± 0.23	3.72 ± 0.25	3.95 ± 0.27
CCCC(=O)OC [methyl butanoate] + C[n+]1ccn(CCCO)c1.N#CN=C=[N-]			9.03 ± 0.62	9.36 ± 0.64	9.67 ± 0.66	9.96 ± 0.68	10.3 ± 0.7	10.6 ± 0.7
CCCO [propan-1-ol] + C[N+]1(CCCO)CCOCC1.N#C[N-]C#N			2.63 ± 0.18	2.58 ± 0.18	2.55 ± 0.17	2.52 ± 0.17	2.49 ± 0.17	2.46 ± 0.17
C#CCCCCC [1-heptyne] + C[N+]1(CCCO)CCOCC1.N#C[N-]C#N		82.9 ± 5.7	79.8 ± 5.5	76.7 ± 5.3	74 ± 5.1	72 ± 4.9	69.8 ± 4.8	68.1 ± 4.7
Cc1cccc(C)c1 [1,3-dimethylbenzene] + C[n+]1ccn(CCCO)c1.N#CN=C=[N-]			14.1 ± 1	14.5 ± 1	14.9 ± 1	15.2 ± 1	15.6 ± 1.1	16 ± 1.1
C#CCCCC [1-hexyne] + C[n+]1ccn(CCCO)c1.N#CN=C=[N-]	18.8 ± 1.3	19.3 ± 1.3	19.6 ± 1.3	20 ± 1.4	20.3 ± 1.4	20.6 ± 1.4	21.4 ± 1.5	
CCCCCCCCCC [decane] + C[n+]1ccn(CCCO)c1.N#CN=C=[N-]	1870 ± 130	1680 ± 120	1530 ± 110	1380 ± 95	1270 ± 88	1170 ± 81	1070 ± 74	
C=CCCCCC [1-heptene] + C[n+]1ccn(CCCO)c1.N#CN=C=[N-]	208 ± 14	194 ± 13	176 ± 12	166 ± 11	156 ± 11	146 ± 10	139 ± 10	
CC(C)O [propan-2-ol] + C[N+]1(CCCO)CCOCC1.N#C[N-]C#N			2.85 ± 0.19	2.78 ± 0.19	2.72 ± 0.19	2.67 ± 0.18	2.64 ± 0.18	2.6 ± 0.18
C1CCCCCCC1 [cyclooctane] + C[N+]1(CCCO)CCOCC1.N#C[N-]C#N		571 ± 39	478 ± 33	408 ± 28	345 ± 24	298 ± 20	260 ± 18	229 ± 16
CCC[N+](=O)[O-] [1-nitropropane] + C[n+]1ccn(CCCO)c1.N#CN=C=[N-]			2.69 ± 0.18	2.79 ± 0.19	2.89 ± 0.2	2.97 ± 0.2	3.08 ± 0.21	3.17 ± 0.22
CCO [ethanol] + C[N+]1(CCCO)CCOCC1.N#C[N-]C#N			1.71 ± 0.11	1.66 ± 0.11	1.61 ± 0.11	1.57 ± 0.1	1.54 ± 0.1	1.51 ± 0.1
CC#N [acetonitrile] + C[n+]1ccn(CCCO)c1.N#CN=C=[N-]			1.19 ± 0.08	1.23 ± 0.08	1.29 ± 0.08	1.33 ± 0.09	1.37 ± 0.09	1.41 ± 0.09
CC(C)OC(C)C [diisopropyl ether] + C[n+]1ccn(CCCO)c1.N#CN=C=[N-]			96 ± 6.6	92.7 ± 6.4	90.6 ± 6.2	88 ± 6	86.5 ± 5.9	84.3 ± 5.8
CCCCCCCCC [nonane] + C[n+]1ccn(CCCO)c1.N#CN=C=[N-]	1360 ± 94	1200 ± 83	1070 ± 74	955 ± 66	863 ± 59	780 ± 54	722 ± 50	
c1ccccc1 [benzene] + C[n+]1ccn(CCCO)c1.N#CN=C=[N-]			4.41 ± 0.3	4.56 ± 0.31	4.74 ± 0.32	4.92 ± 0.34	5.08 ± 0.35	5.22 ± 0.36
C#CCCC [1-pentyne] + C[n+]1ccn(CCCO)c1.N#CN=C=[N-]	11.3 ± 0.8	11.5 ± 0.8	11.7 ± 0.8	11.8 ± 0.8	12 ± 0.8	12.1 ± 0.8	12.3 ± 0.8	
